Experimental data: US20120245111A1, “FLAVANONES-CONTAINING FOOD COMPOSITIONS” (NESTEC S.A., priority 2009, published 2012)

Assay: Particle size distribution of hesperidin in water by laser diffraction (Malvern Mastersizer 2000)
Type: physicochemical
Experimental: The particle size distribution is observed using a microscopy optic LEICA DMR (mode Differential Interference Contrast and polarisation). The particle size distribution is measured by laser diffraction using a Malvern Mastersizer 2000.
The hesperidin obtainable by the heat treatment processes of the invention has a smaller size distribution compared to commercially available hesperidin as illustrated in FIG. 3.
For variant 3 (140° C., 60 s) and variant 4 (160° C., 10 s), the cumulative distribution of particle size below 20 microns increases to 99%. Thus, it can be seen that the heat treatment has an influence on the particle size of hesperidin and on the conformation of hesperidin particles. Therefore, sedimentation is avoided.

SMILES: COc1ccc([C@@H]2CC(=O)c3c(O)cc(O[C@@H]4O[C@H](CO[C@@H]5O[C@@H](C)[C@H](O)[C@@H](O)[C@H]5O)[C@@H](O)[C@H](O)[C@H]4O)cc3O2)cc1O [commercially available hesperidin, hesperidin]
- % of cumulative distribution of hesperidin particle below 20 microns (0.5% hesperidin in water, before or after UHT treatment): 40%
- crystal size distribution range (commercially available hesperidin extract, crystalline form): 0.1 to 160 microns
